Reference: patent US9938273B2 (Plexxikon Inc., priority 2015, dated 2018)

How the values were obtained:
[1] = biological target: T1, BA/F3-FLT3-ITD + D835Y cells (Homo sapiens, UniProt P36888, D835Y, cells depend on it, form not given); experiment: Cell proliferation assay (CellTiter-Glo), engineered BA/F3 cells; format: cell-based, murine; details: BaF3 FLT3 ITD/D835Y cells, 3d-Growth; read-out: BaF3_FLT3 ITD/D835Y 3d-Growth: IC50
T1 sequence (P36888 1-993 D835Y): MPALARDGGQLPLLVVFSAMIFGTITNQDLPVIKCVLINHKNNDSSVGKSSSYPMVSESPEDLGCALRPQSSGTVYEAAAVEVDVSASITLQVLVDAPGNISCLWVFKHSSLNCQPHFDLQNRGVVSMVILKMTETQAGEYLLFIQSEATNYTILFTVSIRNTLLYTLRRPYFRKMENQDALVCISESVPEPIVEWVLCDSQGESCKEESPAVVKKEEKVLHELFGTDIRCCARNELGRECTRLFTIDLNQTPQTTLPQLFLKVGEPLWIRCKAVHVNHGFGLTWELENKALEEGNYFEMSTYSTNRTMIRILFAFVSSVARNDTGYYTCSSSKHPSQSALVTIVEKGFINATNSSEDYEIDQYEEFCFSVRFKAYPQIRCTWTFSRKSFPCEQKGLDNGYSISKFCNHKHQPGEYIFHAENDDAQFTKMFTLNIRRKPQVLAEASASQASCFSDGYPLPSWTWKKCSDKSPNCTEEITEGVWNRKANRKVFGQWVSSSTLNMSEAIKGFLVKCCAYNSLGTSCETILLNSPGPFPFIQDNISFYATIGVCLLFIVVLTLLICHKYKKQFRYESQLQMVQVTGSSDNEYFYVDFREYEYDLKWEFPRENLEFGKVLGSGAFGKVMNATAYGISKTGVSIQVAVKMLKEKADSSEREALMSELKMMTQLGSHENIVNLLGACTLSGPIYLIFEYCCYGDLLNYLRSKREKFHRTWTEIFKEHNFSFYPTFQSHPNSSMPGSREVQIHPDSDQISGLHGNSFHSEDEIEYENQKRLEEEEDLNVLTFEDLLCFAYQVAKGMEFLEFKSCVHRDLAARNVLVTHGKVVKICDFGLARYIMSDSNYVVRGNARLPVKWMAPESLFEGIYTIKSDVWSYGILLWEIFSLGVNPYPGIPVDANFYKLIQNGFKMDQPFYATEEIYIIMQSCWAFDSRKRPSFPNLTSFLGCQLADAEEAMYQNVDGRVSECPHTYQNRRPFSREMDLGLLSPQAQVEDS
From the text: (§1) The FLT3 inhibitors may be assessed using the MOLM-14, Acute Myeloid Leukemia cell line that endogenously expresses FLT3 ITD or derivatives of the human FLT3 AML cell line which acquired the D835Y (activation loop) of F691L (gatekeeper) mutation after selection in escalating doses of the FLT3 Inhibitor AC220. FLT3 inhibitors may also be assessed using cells that are engineered to express mutant FLT3. For engineered cells, murine Ba/F3 cells were transfected with full-length FLT3 ITD/D835Y mutations. The parental BA/F3 cells are dependent upon Interleukin-3 (IL-3) for survival, and introduction of the FLT3 constructs rendered these cells dependent upon FLT3 kinase activity when cultured in the absences of IL-3. Engineered BA/F3 cell growth assays can be performed in either the […] of IL-3, to assess the compound inhibition of FLT3 or to detect the presence of off-target activity, respectively. Inhibitors of FLT3 kinase activity reduce or eliminate the FLT3 oncogenic signaling, resulting in reduced cell proliferation. This inhibition is measured as a function of compound concentration to asses IC50 values.
(§2) Cell lines used in proliferation assays are as follows in Table 3:
(§3) Cells were seeded at 1×10^4 cells per well of a 96 well cell culture plate in 50 μl of cell culture medium. Compounds were dissolved in DMSO, typically at a concentration of 0.5 mM and were serially diluted 1:3 for a total of eight points and added to the cells to final concentrations of […], 0.0041, 0.0014 and 0.00046 μM in 100 μl cell culture medium (final concentration 0.2% DMSO). […] The cells were incubated at 37° C., 5% CO2 for three days. CellTiter-Glo Buffer (Promega Cell Viability Assay catalog #G7573) and substrate were equilibrated to room temperature, and enzyme/substrate Recombinant Firefly Luciferase/Beetle Luciferin was reconstituted. The cell plates were equilibrated to room temperature for 30 minutes, then lysed by addition of an equivalent volume of the Celltiter-Glo Reagent. The plate was mixed for 10 minutes on a plate shaker to lyse the cells. The plates were read on a Tecan M1000 using Luminescence protocol modified to read 0.1 s per well. The luminescence reading assesses the ATP content, which correlates directly with cell number such that the reading as a function of compound concentration was used to determine the IC50 value.

[2] = test system: MOLM-14 D835Y cells, FLT3 ITD and FLT3 D835Y; experiment: Cell proliferation assay (CellTiter-Glo), MOLM-14 D835Y; format: cell-based; details: Homo sapiens, 72 h, 3d-Growth, GMean
From the text: as §1, §2, §3

c-KIT = biological target: T2, c-KIT (Homo sapiens, UniProt P10721); experiment: AlphaScreen kinase assay with recombinant enzyme, c-KIT; format: biochemical; details: 100ATP, 8pt, GMean
T2 construct: purchased Millipore 14-559K
Protocol: (§4) In order to determine the effect of compounds on FLT3 catalytic activity, kinase assays using recombinant enzymes and AlphaScreen® technology have been established. The catalytic activity of c-kit activity was also measured to determine selectivity of the compounds. When the kinases are catalytically active, they phosphorylate a biotinylated peptide substrate on tyrosine residues. Using AlphaScreen® technology, the ability of the compounds to affect the catalytic activity of the kinases can be measured quantitatively. The peptide substrate is immobilized by the AlphaScreen® Streptavidin Donor beads and, upon phosphorylation by a tyrosine kinase, can bind to AlphaScreen® Anti-Phosphotyrosine (PY20) Acceptor beads. Upon excitation of these beads with laser light at 680 nm, singlet oxygen is produced. This singlet oxygen is rapidly quenched, unless the AlphaScreen® Anti-Phosphotyrosine (PY20) Acceptor beads are in close proximity, in which case a proximity signal can be measured at 580 nm. In the presence of catalytic activity, there is a very strong proximity signal. Selective kinase inhibitors affect a decrease in this proximity signal through a decrease in tyrosine phosphorylation of the peptide substrate.
(§5) The assay was performed as summarized below.
(§6) Poly (Glu4-Tyr) Peptide, biotin conjugate [Biotin-GG(EEEEY)10EE] (SEQ ID NO: 4)
(§7) Final concentration=30 nM
(§8) Final concentration for IC50 determination=10 μM (FLT3-D835Y or FLT3-ITD) or 100 μM (c-KIT)
(§9) AlphaScreen® Phosphotyrosine (PY20) Assay Kit
(§10) Final concentration=10 μg/mL
(§11) Dilute compounds in DMSO to 20× final concentration.
(§12) Add 1 μl of compound to each well of 384 well reaction plate (Perkin Elmer #6005359).
(§13) Mix enzyme and Poly (Glu4-Tyr) Peptide substrate at 1.33× final concentration in assay buffer.
(§14) Mix ATP at 5× final concentration in assay buffer.
(§15) Add 15 μL enzyme/substrate mixture to the reaction plate.
(§16) Add 4 μL of ATP to the reaction plate.
(§17) Mix Streptavidin Donor beads at 6× final concentration in Stop/Detection buffer.
(§18) Add 5 μL Streptavidin Donor beads to the reaction plate. Centrifuge 1 minute, shake to mix, and incubate at room temperature for 20 minutes.
(§19) Mix Anti-Phosphotyrosine (PY20) Acceptor beads at 6× final concentration in Stop/Detection buffer.
(§20) Add 5 μL Anti-Phosphotyrosine (PY20) beads to the reaction plate.
(§21) Centrifuge 1 minute, shake to mix, and incubate at room temperature for 60 minutes.
(§22) Read plate on Wallac EnVision™ 2103 Multilabel Reader.

FLT3-D835Y = biological target: T3, FLT3-D835Y (Homo sapiens, UniProt P36888, D835Y); experiment: AlphaScreen kinase assay with recombinant enzyme, FLT3-D835Y; format: biochemical; details: 8pt, GMean
T3 construct: purchased Invitrogen PV3967
T3 sequence (P36888 27-993 D835Y): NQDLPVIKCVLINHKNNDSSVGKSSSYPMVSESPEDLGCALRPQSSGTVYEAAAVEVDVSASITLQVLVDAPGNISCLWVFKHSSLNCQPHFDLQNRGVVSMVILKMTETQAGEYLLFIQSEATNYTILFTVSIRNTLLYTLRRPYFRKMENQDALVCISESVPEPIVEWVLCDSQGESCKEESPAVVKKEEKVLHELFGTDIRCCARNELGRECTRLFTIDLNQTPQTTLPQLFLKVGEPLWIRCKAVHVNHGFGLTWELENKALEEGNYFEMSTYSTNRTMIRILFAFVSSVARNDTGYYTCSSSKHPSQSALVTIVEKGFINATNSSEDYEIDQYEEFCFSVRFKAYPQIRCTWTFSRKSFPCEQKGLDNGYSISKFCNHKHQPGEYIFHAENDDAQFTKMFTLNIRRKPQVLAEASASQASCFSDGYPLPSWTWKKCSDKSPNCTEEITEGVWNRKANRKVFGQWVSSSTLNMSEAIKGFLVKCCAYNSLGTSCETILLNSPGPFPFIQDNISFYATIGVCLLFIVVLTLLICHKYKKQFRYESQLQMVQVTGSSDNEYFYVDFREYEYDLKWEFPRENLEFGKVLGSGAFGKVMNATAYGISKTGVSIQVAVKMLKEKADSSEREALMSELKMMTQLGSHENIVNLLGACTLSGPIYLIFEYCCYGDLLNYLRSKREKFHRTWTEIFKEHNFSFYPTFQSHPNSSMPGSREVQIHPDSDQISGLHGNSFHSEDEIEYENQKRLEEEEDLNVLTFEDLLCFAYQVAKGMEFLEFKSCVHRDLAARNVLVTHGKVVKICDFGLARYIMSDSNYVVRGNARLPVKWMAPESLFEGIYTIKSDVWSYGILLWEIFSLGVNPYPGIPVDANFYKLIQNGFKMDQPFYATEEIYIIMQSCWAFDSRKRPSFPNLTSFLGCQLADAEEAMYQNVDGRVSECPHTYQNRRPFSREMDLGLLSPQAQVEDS
Protocol: as §4, §5, §6, §7, §8, §9, §10, §11, §12, §13, §14, §15, §16, §17, §18, §19, §20, §21, §22

[3] = test system: MOLM-14 F691L cells, FLT3 ITD and FLT3 F691L; experiment: Cell proliferation assay (CellTiter-Glo), MOLM-14 F691L; format: cell-based; details: Homo sapiens, 72 h, 3d-Growth, GMean
From the text: as §1, §2, §3

T2 sequence (P10721 26-976): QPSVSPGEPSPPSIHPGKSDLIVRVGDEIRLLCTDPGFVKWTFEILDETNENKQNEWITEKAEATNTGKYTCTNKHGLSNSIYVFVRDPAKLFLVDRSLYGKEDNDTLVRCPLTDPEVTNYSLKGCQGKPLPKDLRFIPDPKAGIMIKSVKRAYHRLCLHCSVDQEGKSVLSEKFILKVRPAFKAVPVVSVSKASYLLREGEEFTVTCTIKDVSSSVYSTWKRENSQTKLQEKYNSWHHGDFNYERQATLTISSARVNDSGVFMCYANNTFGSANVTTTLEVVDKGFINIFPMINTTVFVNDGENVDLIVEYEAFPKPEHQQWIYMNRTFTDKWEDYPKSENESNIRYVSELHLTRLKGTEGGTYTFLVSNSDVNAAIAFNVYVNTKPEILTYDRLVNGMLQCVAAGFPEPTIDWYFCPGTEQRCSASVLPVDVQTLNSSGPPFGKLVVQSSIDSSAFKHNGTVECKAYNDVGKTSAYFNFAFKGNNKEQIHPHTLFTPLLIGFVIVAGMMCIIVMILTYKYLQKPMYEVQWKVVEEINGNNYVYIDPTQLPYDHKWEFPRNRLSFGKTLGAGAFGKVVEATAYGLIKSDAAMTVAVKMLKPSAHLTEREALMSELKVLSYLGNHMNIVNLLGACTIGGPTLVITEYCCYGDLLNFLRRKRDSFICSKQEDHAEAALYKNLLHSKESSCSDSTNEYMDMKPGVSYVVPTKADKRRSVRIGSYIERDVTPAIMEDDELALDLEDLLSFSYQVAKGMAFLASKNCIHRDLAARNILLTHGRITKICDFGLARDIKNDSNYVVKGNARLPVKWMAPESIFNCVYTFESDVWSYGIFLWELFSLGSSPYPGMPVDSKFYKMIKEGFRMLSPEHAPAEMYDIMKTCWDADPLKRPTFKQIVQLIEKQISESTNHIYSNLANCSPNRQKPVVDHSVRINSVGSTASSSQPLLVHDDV

GI50 [1]	IC50 [2]	IC50 (c-KIT)	IC50 (FLT3-D835Y)	IC50 [3]	Structure (SMILES)
0.0001 to 10 µM	0.0001 to 10 µM	50 to 100 µM	–	–	CC(C)(C#N)CNS(=O)(=O)c1cccc(-c2cnc3[nH]c(-c4ccccc4)cc3c2)n1 [Compound P-0108, N-(2-cyano-2-methyl-propyl)-6-(2-phenyl-1H-pyrrolo[2,3-b]pyridin-5-yl)pyridine-2-sulfonamide]
–	0.0001 to 10 µM	–	0.0001 to 10 µM	0.0001 to 10 µM	N#CCCCNC(=O)c1cccc(-c2cnc3[nH]c(-c4ccccc4)cc3c2)n1 [Compound P-0128, N-(3-cyanopropyl)-6-(2-phenyl-1H-pyrrolo[2,3-b]pyridin-5-yl)pyridine-2-carboxamide]
–	0.0001 to 10 µM	–	0.0001 to 10 µM	0.0001 to 10 µM	CC(C)(C#N)NC(=O)c1cccc(-c2cnc3[nH]c(-c4cnn(C5CCNCC5)c4)c(Cl)c3c2)n1 [Compound P-0207, 6-[3-chloro-2-[1-(4-piperidyl)pyrazol-4-yl]-1H-pyrrolo[2,3-b]pyridin-5-yl]-N-(1-cyano-1-methyl-ethyl)pyridine-2-carboxamide]
